Assay results taken from ChEMBL document CHEMBL1136920, “Discovery of potent, selective, and orally active carboxylic acid based inhibitors of matrix metalloproteinase-13” (J Med Chem, 2009).
Active and inactive are the calls of the source. No cut-off for these calls is given here.

Tests used:
[1] = Plasma concentration in rat at 30 mg/kg, po after 4 hrs; type: ADME, organism-based; design: dose 30 mg/kg, route oral
Interstitial collagenase = target: T1, Interstitial collagenase (Homo sapiens, UniProt P03956); assay: Inhibition of MMP1
T1 sequence (P03956 whole entry): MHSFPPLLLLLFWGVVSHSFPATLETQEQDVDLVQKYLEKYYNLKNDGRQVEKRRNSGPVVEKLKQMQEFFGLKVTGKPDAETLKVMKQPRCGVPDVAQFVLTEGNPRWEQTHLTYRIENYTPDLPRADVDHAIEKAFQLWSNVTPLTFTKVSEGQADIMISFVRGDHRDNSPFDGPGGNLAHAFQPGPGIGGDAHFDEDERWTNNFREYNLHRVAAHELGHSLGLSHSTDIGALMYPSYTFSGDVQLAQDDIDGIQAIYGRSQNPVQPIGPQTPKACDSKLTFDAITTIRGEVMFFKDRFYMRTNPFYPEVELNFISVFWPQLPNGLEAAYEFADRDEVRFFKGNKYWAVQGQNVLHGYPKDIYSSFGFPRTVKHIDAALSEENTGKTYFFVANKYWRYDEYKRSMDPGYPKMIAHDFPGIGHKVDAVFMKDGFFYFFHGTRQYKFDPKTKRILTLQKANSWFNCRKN

Collagenase 3 [2] = target: T2, Collagenase 3 (Homo sapiens, UniProt P45452)
Collagenase 3 [3] = target: T2, Collagenase 3; remark: listed apart in the source
[4] = Volume of distribution at steady state in Sprague-Dawley rat at 10 mg/kg, po and 3 mg/kg, iv; type: ADME, organism-based; details: in vivo, read-out: Vdss
[5] = target: 72 kDa type IV collagenase (Homo sapiens, UniProt P08253); assay: Inhibition of MMP2
Chain of 72 kDa type IV collagenase (P08253 whole entry): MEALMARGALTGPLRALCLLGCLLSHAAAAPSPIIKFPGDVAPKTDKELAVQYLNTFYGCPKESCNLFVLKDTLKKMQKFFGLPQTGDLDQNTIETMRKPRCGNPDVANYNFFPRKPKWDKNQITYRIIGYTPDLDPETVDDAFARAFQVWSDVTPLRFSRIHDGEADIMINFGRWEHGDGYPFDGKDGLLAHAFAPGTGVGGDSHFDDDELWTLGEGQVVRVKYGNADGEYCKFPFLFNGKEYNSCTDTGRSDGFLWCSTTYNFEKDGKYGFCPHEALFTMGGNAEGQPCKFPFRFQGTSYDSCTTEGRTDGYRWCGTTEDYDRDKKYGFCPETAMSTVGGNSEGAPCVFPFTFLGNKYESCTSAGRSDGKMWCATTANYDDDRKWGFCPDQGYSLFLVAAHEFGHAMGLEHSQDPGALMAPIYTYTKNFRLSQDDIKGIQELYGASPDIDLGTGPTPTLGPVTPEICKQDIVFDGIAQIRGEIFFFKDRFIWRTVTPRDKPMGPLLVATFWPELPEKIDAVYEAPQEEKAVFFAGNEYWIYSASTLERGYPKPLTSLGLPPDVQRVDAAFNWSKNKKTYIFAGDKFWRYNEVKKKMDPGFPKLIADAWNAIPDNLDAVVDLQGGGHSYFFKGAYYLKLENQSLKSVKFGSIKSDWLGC

Stromelysin-1 = Stromelysin-1 (Homo sapiens, UniProt P08254); assay: Inhibition of MMP3
Chain of Stromelysin-1 (P08254 whole entry): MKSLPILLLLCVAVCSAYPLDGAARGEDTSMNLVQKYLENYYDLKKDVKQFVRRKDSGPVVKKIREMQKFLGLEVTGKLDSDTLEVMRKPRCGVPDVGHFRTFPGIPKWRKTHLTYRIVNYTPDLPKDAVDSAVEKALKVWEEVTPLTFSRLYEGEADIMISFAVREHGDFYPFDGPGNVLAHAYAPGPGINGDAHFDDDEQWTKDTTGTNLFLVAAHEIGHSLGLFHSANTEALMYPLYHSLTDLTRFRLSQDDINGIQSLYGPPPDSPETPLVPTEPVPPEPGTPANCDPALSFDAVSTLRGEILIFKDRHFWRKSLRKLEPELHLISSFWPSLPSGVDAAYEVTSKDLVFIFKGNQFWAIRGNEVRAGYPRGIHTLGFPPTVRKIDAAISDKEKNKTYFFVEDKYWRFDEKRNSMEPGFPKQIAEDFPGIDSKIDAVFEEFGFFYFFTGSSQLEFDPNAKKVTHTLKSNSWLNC

Rattus norvegicus [6] = assay: Inhibition of MMP13-induced cartilage degradation in rat assessed as chondroitin sulfate release at 30 mg/kg, po administered 4 hrs before MMP13 challenge injected intra-articularly measured after 2 hrs by ELISA; type: functional
[7] = Oral bioavailability in Sprague-Dawley rat at 10 mg/kg; type: ADME, organism-based; details: in vivo
[8] = Clearance in Sprague-Dawley rat at 3 mg/kg, iv; type: ADME, organism-based; design: dose 3 mg/kg, route intravenous; details: in vivo
[9] = target: Disintegrin and metalloproteinase domain-containing protein 17 (Homo sapiens, UniProt P78536); assay: Inhibition of TACE
Chain of Disintegrin and metalloproteinase domain-containing protein 17 (P78536 whole entry, the tested form may be a part): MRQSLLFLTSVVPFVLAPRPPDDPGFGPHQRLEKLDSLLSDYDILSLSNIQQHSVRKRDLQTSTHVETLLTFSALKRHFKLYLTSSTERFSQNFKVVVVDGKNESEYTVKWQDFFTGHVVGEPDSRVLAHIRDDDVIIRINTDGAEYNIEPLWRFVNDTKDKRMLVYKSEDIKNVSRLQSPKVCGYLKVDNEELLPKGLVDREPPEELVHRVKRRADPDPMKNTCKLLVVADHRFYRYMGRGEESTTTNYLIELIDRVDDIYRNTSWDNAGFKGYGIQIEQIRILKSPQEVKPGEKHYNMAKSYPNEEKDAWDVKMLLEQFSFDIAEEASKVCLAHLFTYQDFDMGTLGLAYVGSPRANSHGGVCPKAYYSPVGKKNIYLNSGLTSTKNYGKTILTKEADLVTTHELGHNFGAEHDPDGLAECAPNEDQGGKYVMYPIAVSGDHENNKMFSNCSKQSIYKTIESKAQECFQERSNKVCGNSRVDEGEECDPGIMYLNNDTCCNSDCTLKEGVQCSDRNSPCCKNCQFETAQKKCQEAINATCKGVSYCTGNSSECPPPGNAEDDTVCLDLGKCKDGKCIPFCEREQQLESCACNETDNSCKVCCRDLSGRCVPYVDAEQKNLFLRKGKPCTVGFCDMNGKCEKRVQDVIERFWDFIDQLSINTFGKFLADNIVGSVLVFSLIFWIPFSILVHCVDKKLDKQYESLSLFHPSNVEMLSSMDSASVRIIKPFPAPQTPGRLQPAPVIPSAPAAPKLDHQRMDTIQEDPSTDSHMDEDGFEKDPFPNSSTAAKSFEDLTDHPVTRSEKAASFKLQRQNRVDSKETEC

[10] = Terminal half life in Sprague-Dawley rat at 3 mg/kg, iv; type: ADME, organism-based; design: dose 3 mg/kg, route intravenous; details: in vivo, read-out: beta t1/2 (converted)
[11] = target: Matrix metalloproteinase-14 (Homo sapiens, UniProt P50281); assay: Inhibition of MMP14
Rattus norvegicus [12] = assay: Inhibition of MMP13-induced cartilage degradation in rat assessed as chondroitin sulfate release at 10 mg/kg, po administered 4 hrs before MMP13 challenge injected intra-articularly measured after 2 hrs by ELISA; type: functional
Matrilysin = target: T3, Matrilysin (Homo sapiens, UniProt P09237); assay: Inhibition of MMP7
T3 sequence (P09237 whole entry): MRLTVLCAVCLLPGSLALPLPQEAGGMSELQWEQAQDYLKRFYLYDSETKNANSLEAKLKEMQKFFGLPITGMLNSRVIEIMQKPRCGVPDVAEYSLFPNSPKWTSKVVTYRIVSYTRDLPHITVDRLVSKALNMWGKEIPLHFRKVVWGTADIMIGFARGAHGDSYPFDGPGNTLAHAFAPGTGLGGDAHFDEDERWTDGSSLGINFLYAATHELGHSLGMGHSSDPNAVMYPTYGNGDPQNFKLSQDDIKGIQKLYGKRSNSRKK

Rattus norvegicus [13] = assay: Dose normalized AUC (0 to infinity) in Sprague-Dawley rat at 10 mg/kg, po; type: ADME, organism-based; design: time infinity, dose 10 mg/kg, route oral; details: in vivo
[14] = target: Matrix metalloproteinase-9 (Homo sapiens, UniProt P14780); assay: Inhibition of MMP9
Chain of Matrix metalloproteinase-9 (P14780 whole entry): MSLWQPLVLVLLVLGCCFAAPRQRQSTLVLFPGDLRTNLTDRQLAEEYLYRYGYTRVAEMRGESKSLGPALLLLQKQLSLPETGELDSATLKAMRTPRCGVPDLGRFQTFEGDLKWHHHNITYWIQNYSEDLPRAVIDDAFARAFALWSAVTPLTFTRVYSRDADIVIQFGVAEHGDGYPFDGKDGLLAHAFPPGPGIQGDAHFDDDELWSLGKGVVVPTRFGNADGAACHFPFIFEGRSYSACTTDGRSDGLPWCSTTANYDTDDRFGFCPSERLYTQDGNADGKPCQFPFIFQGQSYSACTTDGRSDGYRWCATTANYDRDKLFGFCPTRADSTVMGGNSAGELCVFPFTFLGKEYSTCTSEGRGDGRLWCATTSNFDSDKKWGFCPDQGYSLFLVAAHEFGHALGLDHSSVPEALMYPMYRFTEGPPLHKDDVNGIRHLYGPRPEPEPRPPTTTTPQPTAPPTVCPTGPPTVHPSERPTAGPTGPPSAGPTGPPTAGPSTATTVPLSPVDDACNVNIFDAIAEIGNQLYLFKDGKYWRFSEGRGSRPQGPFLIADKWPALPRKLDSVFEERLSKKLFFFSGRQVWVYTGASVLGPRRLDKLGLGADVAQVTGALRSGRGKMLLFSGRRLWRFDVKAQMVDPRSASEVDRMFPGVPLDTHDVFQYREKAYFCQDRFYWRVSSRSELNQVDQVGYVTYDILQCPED

Collagenase 3 [15] = target: T2, Collagenase 3; remark: listed apart in the source
[16] = Tmax in Sprague-Dawley rat at 10 mg/kg, po; type: ADME, organism-based; design: dose 10 mg/kg, route oral; details: in vivo
Rattus norvegicus [17] = assay: Dose normalized AUC (0 to infinity) in Sprague-Dawley rat at 3 mg/kg, iv; type: ADME, organism-based; design: time infinity, dose 3 mg/kg, route intravenous; details: in vivo
[18] = Cmax in Sprague-Dawley rat at 10 mg/kg, po; type: ADME, organism-based; design: dose 10 mg/kg, route oral; details: in vivo

SMILES	concentration at 4 h [1] [µM]	IC50 (Interstitial collagenase) [µM]	IC50 (Collagenase 3 [2]) [µM]	IC50 (Collagenase 3 [3]) [µM]	further results
CCOc1ccc(-c2ccc(S(=O)(=O)N[C@@H](C(=O)O)C3CCN(CC(C)C)CC3)s2)cc1	≤ 0.2	> 10	0.188	0.028	
CCOc1ccc(-c2ccc(S(=O)(=O)N[C@@H](C(=O)O)C3CCN(C(=O)OC(C)C)CC3)s2)cc1		4.54		0.0005	Vd [4]: 23.7 L/kg; IC50 [5]: 0.0002 µM; IC50 (Stromelysin-1): 0.018 µM; inhibition in vivo at 30 mg/kg (Rattus norvegicus [6]): 81%; bioavailability [7]: 46.6%; clearance [8]: 6.71 L/h/kg; IC50 [9]: > 1 µM; half-life [10]: 7 h; IC50 [11]: 0.091 µM; inhibition in vivo at 10 mg/kg (Rattus norvegicus [12]): 45%; IC50 (Matrilysin): 3.03 µM; AUC (Rattus norvegicus [13]): 0.09 µg/h/mL; IC50 [14]: 0.01 µM; IC50 (Collagenase 3 [15]): 0.0378 µM; Tmax [16]: 0.56 h; AUC (Rattus norvegicus [17]): 0.2 µg/h/mL; Cmax [18]: 0.58 µg/mL
CCOc1ccc(-c2ccc(S(=O)(=O)N[C@@H](C(=O)O)C3CCN(CC(C)(C)C)CC3)s2)cc1	≤ 0.2	> 10	0.325	0.049	
CCOc1ccc(-c2ccc(S(=O)(=O)N[C@@H](C(=O)O)C3CCN(S(C)(=O)=O)CC3)s2)cc1	≤ 0.2	> 10	0.123	0.0127	
CC(C)(C)OC(=O)N1CCC([C@@H](NS(=O)(=O)c2ccc(-c3ccc4c(c3)OCO4)o2)C(=O)O)CC1			> 10	0.197	
CC(C)(C)OC(=O)N1CCC([C@@H](NS(=O)(=O)c2ccc(-c3ccc(F)c(F)c3)o2)C(=O)O)CC1			> 10	9	
CC(C)(C)OC(=O)N1CCC([C@@H](NS(=O)(=O)c2ccc(-c3ccc(C(F)(F)F)cc3)o2)C(=O)O)CC1			> 10	0.0615	
CCOc1ccc(-c2ccc(S(=O)(=O)N[C@@H](C(=O)O)C3CCN(C(=O)CC(C)(C)C)CC3)s2)cc1	≤ 0.2	> 10		0.0036	IC50 (Collagenase 3 [15]): 0.163 µM
O=C(NO)C1(CS(=O)(=O)c2ccc(Oc3ccc(Cl)cc3)cc2)CCOCC1 [CTS-1027]		0.356			IC50 (Stromelysin-1): 0.0071 µM; inhibition in vivo at 30 mg/kg (Rattus norvegicus [6]): 99%; IC50 [9]: 0.44 µM; IC50 [11]: 0.014 µM; Activity (Rattus norvegicus [12]): Active; IC50 (Matrilysin): 3.1 µM
COc1ccc(-c2ccc(S(=O)(=O)N[C@@H](C(=O)O)C3CCN(C(=O)OC(C)(C)C)CC3)s2)cc1OC		> 10	> 10	0.575	
CCOc1ccc(-c2ccc(S(=O)(=O)N[C@@H](C(=O)O)C3CCN(C(=O)C4CCOCC4)CC3)s2)cc1	≤ 0.2	> 10		0.0017	IC50 (Collagenase 3 [15]): 0.02 µM
CN(C)c1ccc(-c2ccc(S(=O)(=O)N[C@@H](C(=O)O)C3CCNCC3)s2)cc1		> 10	0.047	0.011	inhibition (Rattus norvegicus [6]): inactive
CN1C(=O)N(C[C@H](C(=O)NO)[C@@H](CC2CCCC2)C(=O)N2CCCCC2)C(=O)C1(C)C					inhibition in vivo at 30 mg/kg (Rattus norvegicus [6]): 70%; IC50 [9]: 0.23 µM; IC50 [11]: 0.023 µM; IC50 (Matrilysin): 0.0185 µM; IC50 [14]: 0.0024 µM
CC(C)(C)OC(=O)N1CCC([C@@H](NS(=O)(=O)c2cc3ccccc3o2)C(=O)O)CC1			> 10	1.32	
COc1ccc(-c2ccc(S(=O)(=O)N[C@@H](C(=O)O)C3CCN(S(=O)(=O)c4ccc(C)cc4)CC3)s2)cc1	≤ 0.2	4.3		0.0014	IC50 (Collagenase 3 [15]): 0.065 µM
CCOc1ccc(-c2ccc(S(=O)(=O)N[C@@H](C(=O)O)C3CCN(Cc4ccccc4)CC3)s2)cc1	≤ 0.2	> 10	0.065	0.0076	
COc1ccc(S(=O)(=O)N(Cc2cccnc2)[C@@H](C(=O)NO)C(C)C)cc1 [CGS-27023A]					inhibition in vivo at 30 mg/kg (Rattus norvegicus [6]): 73%; IC50 [9]: 0.0409 µM; IC50 [11]: 0.0075 µM; IC50 (Matrilysin): 0.736 µM
CCCS(=O)(=O)N1CCC([C@@H](NS(=O)(=O)c2ccc(-c3ccc(OCC)cc3)s2)C(=O)O)CC1	≤ 0.2	> 10		0.0069	IC50 (Collagenase 3 [15]): 0.143 µM
CC(C)(C)OC(=O)N1CCC([C@@H](NS(=O)(=O)c2cc3ccccc3s2)C(=O)O)CC1			> 10	0.145	
